Experimental data reported in ChEMBL document CHEMBL1128153, “Acetylcholinesterase inhibition by alkaloids of the ant's venom Monomorium minutum” (Bioorg Med Chem Lett, 1995).

Tests used:
[1] = Partition coefficient (logP); format: physicochemical; settings: octanol/water
[2] = tested on: ant; test: Evaluated for the amount of compound present in ant's venom Monomorium minutum.; format: functional
[3] = biological target: Acetylcholinesterase (Electrophorus electricus, UniProt O42275)
Sequence of Acetylcholinesterase (O42275 whole entry): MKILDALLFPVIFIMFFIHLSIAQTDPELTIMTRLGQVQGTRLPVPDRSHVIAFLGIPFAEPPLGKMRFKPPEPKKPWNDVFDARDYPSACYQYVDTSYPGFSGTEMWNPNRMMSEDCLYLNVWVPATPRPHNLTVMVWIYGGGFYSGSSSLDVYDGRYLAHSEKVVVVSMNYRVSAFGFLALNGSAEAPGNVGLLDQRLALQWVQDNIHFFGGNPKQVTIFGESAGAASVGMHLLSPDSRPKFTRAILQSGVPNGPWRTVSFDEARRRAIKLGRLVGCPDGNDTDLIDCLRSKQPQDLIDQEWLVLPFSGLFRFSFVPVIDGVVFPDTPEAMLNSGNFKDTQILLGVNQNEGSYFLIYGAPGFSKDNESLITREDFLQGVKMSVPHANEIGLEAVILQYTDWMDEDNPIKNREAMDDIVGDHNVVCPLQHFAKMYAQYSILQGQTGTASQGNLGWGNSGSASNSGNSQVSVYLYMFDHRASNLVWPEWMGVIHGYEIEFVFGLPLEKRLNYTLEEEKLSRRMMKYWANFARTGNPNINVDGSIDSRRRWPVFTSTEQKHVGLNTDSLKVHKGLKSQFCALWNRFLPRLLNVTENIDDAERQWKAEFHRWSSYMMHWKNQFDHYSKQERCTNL
Description: Tested for in vitro inhibition of acetylcholinesterase

Row | SMILES | logP [1] | Venom [2] [%] | Ki [3] [µM]
1 | C=CCCCCC1CCC(CCCCCCCCC)N1 (stereo not drawn) | 7.68 | 58.7 | 1.5
2 | C=CCCCCC1=NC(CCCCCCCCC)CC1 (stereo not drawn) | 8.39 | 4.4 | 5
3 | C=CCCCCCCCC1=NC(CCCCC=C)CC1 (stereo not drawn) | 8.02 | 0.2 | 13
4 | CN(C)C(=O)Oc1cccc([N+](C)(C)C)c1 [NEOSTIGMINE BROMIDE] | – | – | 1
5 | C=CCCCCCCCC1CCC(CCCCC=C)N1 (stereo not drawn) | 7.32 | 29.8 | 2.5
